Experimental data as given in paper PMC8371461 (Frontiers in Pharmacology, 2021).
Read-outs that look alike come from different tables or passages of the source.

Legend:
PIK3CA(E545A) = target: T1, PIK3CA(E545A) (Homo sapiens, UniProt P42336, E545A); experiment: kinome scan; assay type: binding; details: 10 µM
T1 construct: purchased DiscoverX (KINOMEscan)

STK16 = target: T2, STK16 (Homo sapiens, UniProt O75716); experiment: kinome scan; assay type: binding; details: 10 µM
T2 construct: purchased DiscoverX (KINOMEscan)
T2 sequence (O75716 whole entry): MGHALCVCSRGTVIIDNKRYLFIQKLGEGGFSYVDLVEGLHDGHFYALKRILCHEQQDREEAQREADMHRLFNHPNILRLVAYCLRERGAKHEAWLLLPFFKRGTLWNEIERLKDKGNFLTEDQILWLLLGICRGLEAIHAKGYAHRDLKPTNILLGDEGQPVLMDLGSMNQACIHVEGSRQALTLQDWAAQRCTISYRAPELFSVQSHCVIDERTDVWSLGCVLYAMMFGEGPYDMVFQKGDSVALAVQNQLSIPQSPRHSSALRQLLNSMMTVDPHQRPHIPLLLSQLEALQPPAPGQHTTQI

FGR = target: T3, FGR (Homo sapiens, UniProt P09769); experiment: kinome scan; assay type: binding; details: 10 µM
T3 construct: purchased DiscoverX (KINOMEscan)

PIK3CA(E542K) = target: T4, PIK3CA(E542K) (Homo sapiens, UniProt P42336, E542K); experiment: kinome scan; assay type: binding; details: 10 µM
T4 construct: purchased DiscoverX (KINOMEscan)

[1] = tested on: Rat pregnane X receptor (rPXR) signaling pathway; design: method as in CHEMBL2114797; details: reported activity, data mining; ref CHEMBL2114797; cited from earlier work
RIOK3 = target: T5, RIOK3 (Homo sapiens, UniProt O14730); experiment: kinome scan; assay type: binding; details: 10 µM
T5 construct: purchased DiscoverX (KINOMEscan)
T5 sequence (O14730 whole entry): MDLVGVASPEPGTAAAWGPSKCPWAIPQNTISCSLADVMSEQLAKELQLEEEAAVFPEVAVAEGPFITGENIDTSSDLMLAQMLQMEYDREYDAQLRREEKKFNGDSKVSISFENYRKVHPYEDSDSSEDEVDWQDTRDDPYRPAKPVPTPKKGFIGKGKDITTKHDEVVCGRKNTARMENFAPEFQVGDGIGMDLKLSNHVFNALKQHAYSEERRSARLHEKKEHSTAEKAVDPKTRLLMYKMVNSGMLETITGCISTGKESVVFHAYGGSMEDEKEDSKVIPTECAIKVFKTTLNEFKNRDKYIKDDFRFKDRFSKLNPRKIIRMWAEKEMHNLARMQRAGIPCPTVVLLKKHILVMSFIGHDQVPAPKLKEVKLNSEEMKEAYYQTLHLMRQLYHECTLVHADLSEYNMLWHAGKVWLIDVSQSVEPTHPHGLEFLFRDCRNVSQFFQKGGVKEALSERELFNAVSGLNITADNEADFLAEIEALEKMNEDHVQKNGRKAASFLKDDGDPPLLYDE

TTK = target: T6, TTK (Homo sapiens, UniProt P33981); experiment: kinome scan; assay type: binding; details: 10 µM
T6 construct: purchased DiscoverX (KINOMEscan)

PLK3 = target: T7, PLK3 (Homo sapiens, UniProt Q9H4B4); experiment: kinome scan; assay type: binding; details: 10 µM
T7 construct: purchased DiscoverX (KINOMEscan)
T7 sequence (Q9H4B4 whole entry): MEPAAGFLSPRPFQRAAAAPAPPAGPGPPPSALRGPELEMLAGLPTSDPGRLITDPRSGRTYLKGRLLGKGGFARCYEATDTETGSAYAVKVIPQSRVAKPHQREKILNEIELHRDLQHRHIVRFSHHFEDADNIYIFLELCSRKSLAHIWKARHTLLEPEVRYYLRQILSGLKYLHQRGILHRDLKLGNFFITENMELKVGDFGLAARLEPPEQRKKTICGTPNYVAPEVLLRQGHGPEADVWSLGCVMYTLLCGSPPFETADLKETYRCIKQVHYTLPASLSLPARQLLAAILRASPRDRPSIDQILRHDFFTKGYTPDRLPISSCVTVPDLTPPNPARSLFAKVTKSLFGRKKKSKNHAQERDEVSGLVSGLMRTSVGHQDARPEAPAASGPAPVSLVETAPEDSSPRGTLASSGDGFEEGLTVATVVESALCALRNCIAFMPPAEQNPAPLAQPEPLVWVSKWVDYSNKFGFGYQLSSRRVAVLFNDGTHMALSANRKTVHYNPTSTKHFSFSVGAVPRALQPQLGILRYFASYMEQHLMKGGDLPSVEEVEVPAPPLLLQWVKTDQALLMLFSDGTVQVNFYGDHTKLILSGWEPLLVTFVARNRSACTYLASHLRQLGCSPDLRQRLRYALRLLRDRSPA

Cruzain = tested on: Cruzain; design: method as in CHEMBL1613769; details: reported activity, data mining; ref CHEMBL1613769; cited from earlier work
PIK3C2B = target: T8, PIK3C2B (Homo sapiens, UniProt O00750); experiment: kinome scan; assay type: binding; details: 10 µM
T8 construct: purchased DiscoverX (KINOMEscan)

FLT3(N841I) = target: T9, FLT3(N841I) (Homo sapiens, UniProt P36888, N841I); experiment: kinome scan; assay type: binding; details: 10 µM
T9 construct: purchased DiscoverX (KINOMEscan)

NEK4 = target: T10, NEK4 (Homo sapiens, UniProt P51957); experiment: kinome scan; assay type: binding; details: 10 µM
T10 construct: purchased DiscoverX (KINOMEscan)

MLK3 = target: T11, MLK3 (Homo sapiens, UniProt Q16584); experiment: kinome scan; assay type: binding; details: 10 µM
T11 construct: purchased DiscoverX (KINOMEscan)

[2] = target: T12, TYK2(JH2domain-pseudokinase) (Homo sapiens, UniProt P29597); experiment: kinome scan; assay type: binding
T12 construct: TYK2(JH2domain-pseudokinase); purchased DiscoverX (KINOMEscan)
T12 sequence (P29597 556-888 limits assumed): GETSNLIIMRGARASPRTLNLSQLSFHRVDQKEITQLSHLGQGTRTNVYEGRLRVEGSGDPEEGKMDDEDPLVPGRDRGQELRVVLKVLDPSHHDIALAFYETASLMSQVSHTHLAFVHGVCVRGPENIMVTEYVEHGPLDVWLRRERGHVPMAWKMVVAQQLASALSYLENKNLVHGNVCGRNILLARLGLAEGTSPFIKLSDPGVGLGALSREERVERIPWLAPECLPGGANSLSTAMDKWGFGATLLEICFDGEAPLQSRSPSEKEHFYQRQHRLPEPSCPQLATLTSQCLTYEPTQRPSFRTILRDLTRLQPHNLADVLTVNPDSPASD

MKNK2 = target: T13, MKNK2 (Homo sapiens, UniProt Q9HBH9); experiment: kinome scan; assay type: binding
T13 construct: purchased DiscoverX (KINOMEscan)
T13 sequence (Q9HBH9 whole entry): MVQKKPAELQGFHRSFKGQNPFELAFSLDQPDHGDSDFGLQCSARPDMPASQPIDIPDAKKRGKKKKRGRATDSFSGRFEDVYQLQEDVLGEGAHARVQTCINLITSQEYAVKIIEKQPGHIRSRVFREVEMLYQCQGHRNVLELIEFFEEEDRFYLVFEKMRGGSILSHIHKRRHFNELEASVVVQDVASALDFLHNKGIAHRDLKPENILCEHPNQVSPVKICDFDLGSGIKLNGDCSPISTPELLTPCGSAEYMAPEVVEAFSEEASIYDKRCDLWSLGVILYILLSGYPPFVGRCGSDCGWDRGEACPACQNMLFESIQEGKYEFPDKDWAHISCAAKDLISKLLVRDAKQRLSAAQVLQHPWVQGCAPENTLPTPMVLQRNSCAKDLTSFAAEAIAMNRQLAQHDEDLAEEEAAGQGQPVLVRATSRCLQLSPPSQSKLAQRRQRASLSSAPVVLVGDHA

LATS1 = target: T14, LATS1 (Homo sapiens, UniProt O95835); experiment: kinome scan; assay type: binding; details: 10 µM
T14 construct: purchased DiscoverX (KINOMEscan)

PAK2 = target: T15, PAK2 (Homo sapiens, UniProt Q13177); experiment: kinome scan; assay type: binding; details: 10 µM
T15 construct: purchased DiscoverX (KINOMEscan)
T15 sequence (Q13177 whole entry): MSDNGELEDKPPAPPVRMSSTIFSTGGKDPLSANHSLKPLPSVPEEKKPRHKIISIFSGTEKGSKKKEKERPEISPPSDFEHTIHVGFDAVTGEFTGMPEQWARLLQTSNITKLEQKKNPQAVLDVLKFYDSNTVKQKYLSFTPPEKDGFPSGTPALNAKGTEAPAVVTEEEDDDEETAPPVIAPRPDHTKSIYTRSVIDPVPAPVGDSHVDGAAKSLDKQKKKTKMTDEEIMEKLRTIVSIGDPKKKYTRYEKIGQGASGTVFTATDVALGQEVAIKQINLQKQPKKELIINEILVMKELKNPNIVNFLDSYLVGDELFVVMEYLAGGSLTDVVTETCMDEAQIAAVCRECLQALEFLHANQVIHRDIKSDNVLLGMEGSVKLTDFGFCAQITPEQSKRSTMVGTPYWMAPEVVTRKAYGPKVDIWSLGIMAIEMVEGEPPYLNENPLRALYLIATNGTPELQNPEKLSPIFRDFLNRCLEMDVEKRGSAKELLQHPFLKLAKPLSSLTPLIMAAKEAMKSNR

AMPK-alpha1 = target: T16, AMPK-alpha1 (Homo sapiens, UniProt Q13131); experiment: kinome scan; assay type: binding; details: 10 µM
T16 construct: purchased DiscoverX (KINOMEscan)

VRK2 = target: T17, VRK2 (Homo sapiens, UniProt Q86Y07); experiment: kinome scan; assay type: binding; details: 10 µM
T17 construct: purchased DiscoverX (KINOMEscan)

MAK = target: T18, MAK (Homo sapiens, UniProt P20794); experiment: kinome scan; assay type: binding; details: 10 µM
T18 construct: purchased DiscoverX (KINOMEscan)

STK39 = target: T19, STK39 (Homo sapiens, UniProt Q9UEW8); experiment: kinome scan; assay type: binding; details: 10 µM
T19 construct: purchased DiscoverX (KINOMEscan)

GSK3A = target: T20, GSK3A (Homo sapiens, UniProt P49840); experiment: kinome scan; assay type: binding; details: 10 µM
T20 construct: purchased DiscoverX (KINOMEscan)
T20 sequence (P49840 whole entry): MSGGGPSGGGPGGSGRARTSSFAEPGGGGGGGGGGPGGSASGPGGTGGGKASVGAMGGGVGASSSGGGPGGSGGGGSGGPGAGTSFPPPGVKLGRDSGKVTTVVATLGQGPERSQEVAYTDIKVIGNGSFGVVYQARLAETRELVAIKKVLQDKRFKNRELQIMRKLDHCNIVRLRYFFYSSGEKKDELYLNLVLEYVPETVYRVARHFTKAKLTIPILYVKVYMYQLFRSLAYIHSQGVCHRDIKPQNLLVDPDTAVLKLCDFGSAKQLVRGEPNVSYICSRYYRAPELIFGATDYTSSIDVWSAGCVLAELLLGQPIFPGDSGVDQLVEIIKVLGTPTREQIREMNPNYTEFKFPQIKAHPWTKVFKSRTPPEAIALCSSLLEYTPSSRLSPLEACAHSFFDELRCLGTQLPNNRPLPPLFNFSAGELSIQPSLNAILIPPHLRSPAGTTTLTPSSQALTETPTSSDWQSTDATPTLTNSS

PRKD2 = target: T21, PRKD2 (Homo sapiens, UniProt Q9BZL6); experiment: kinome scan; assay type: binding; details: 10 µM
T21 construct: purchased DiscoverX (KINOMEscan)

BMPR2 = target: T22, BMPR2 (Homo sapiens, UniProt Q13873); experiment: kinome scan; assay type: binding; details: 10 µM
T22 construct: purchased DiscoverX (KINOMEscan)

[3] = target: T23, RSK3(Kin.Dom.2-C-terminal) (Homo sapiens, UniProt Q15349); experiment: kinome scan; assay type: binding; details: 10 µM
T23 construct: RSK3(Kin.Dom.2-C-terminal); purchased DiscoverX (KINOMEscan)
T23 sequence (Q15349 415-672 limits assumed): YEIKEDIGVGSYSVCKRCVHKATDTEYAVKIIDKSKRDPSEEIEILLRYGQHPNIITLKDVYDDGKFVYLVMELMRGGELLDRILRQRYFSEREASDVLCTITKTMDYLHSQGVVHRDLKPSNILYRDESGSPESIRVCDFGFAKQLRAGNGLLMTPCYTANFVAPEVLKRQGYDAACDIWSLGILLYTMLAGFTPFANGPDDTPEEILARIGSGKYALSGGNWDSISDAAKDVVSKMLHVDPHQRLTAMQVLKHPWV

TGFBR1 = target: T24, TGFBR1 (Homo sapiens, UniProt P36897); experiment: kinome scan; assay type: binding; details: 10 µM
T24 construct: purchased DiscoverX (KINOMEscan)

EGFR = target: T25, EGFR (Homo sapiens, UniProt P00533); experiment: kinome scan; assay type: binding; details: 10 µM
T25 construct: purchased DiscoverX (KINOMEscan)

DCAMKL3 = target: T26, DCAMKL3 (Homo sapiens, UniProt Q9C098); experiment: kinome scan; assay type: binding; details: 10 µM
T26 construct: purchased DiscoverX (KINOMEscan)

MYO3A = target: T27, MYO3A (Homo sapiens, UniProt Q8NEV4); experiment: kinome scan; assay type: binding; details: 10 µM
T27 construct: purchased DiscoverX (KINOMEscan)

PIK3CA(M1043I) = target: T28, PIK3CA(M1043I) (Homo sapiens, UniProt P42336, M1043I); experiment: kinome scan; assay type: binding; details: 10 µM
T28 construct: purchased DiscoverX (KINOMEscan)

CDK4-cyclinD3 = target: T29, CDK4-cyclinD3 (Homo sapiens, UniProt P11802); experiment: kinome scan; assay type: binding; details: 10 µM
T29 construct: purchased DiscoverX (KINOMEscan)

EPHB6 = target: T30, EPHB6 (Homo sapiens, UniProt O15197); experiment: kinome scan; assay type: binding; details: 10 µM
T30 construct: purchased DiscoverX (KINOMEscan)

SGK3 = target: T31, SGK3 (Homo sapiens, UniProt Q96BR1); experiment: kinome scan; assay type: binding; details: 10 µM
T31 construct: purchased DiscoverX (KINOMEscan)

p38-beta = target: T32, p38-beta (Homo sapiens, UniProt Q15759); experiment: kinome scan; assay type: binding; details: 10 µM
T32 construct: purchased DiscoverX (KINOMEscan)
T32 sequence (Q15759 whole entry): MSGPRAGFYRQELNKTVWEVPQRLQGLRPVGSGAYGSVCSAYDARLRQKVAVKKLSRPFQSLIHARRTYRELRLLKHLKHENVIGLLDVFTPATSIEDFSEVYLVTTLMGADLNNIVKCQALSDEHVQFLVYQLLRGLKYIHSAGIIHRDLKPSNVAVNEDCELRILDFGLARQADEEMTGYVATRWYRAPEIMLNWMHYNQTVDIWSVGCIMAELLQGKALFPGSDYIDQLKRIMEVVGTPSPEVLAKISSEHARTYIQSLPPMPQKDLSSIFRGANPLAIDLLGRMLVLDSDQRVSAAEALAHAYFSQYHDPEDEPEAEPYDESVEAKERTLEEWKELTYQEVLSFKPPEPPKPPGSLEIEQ

EGFR(L858R) = target: T33, EGFR(L858R) (Homo sapiens, UniProt P00533, L858R); experiment: kinome scan; assay type: binding; details: 10 µM
T33 construct: purchased DiscoverX (KINOMEscan)

CSNK1G1 = target: T34, CSNK1G1 (Homo sapiens, UniProt Q9HCP0); experiment: kinome scan; assay type: binding; details: 10 µM
T34 construct: purchased DiscoverX (KINOMEscan)

HPK1 = target: T35, HPK1 (Homo sapiens, UniProt Q92918); experiment: kinome scan; assay type: binding; details: 10 µM
T35 construct: purchased DiscoverX (KINOMEscan)

T1 sequence (P42336 whole entry E545A): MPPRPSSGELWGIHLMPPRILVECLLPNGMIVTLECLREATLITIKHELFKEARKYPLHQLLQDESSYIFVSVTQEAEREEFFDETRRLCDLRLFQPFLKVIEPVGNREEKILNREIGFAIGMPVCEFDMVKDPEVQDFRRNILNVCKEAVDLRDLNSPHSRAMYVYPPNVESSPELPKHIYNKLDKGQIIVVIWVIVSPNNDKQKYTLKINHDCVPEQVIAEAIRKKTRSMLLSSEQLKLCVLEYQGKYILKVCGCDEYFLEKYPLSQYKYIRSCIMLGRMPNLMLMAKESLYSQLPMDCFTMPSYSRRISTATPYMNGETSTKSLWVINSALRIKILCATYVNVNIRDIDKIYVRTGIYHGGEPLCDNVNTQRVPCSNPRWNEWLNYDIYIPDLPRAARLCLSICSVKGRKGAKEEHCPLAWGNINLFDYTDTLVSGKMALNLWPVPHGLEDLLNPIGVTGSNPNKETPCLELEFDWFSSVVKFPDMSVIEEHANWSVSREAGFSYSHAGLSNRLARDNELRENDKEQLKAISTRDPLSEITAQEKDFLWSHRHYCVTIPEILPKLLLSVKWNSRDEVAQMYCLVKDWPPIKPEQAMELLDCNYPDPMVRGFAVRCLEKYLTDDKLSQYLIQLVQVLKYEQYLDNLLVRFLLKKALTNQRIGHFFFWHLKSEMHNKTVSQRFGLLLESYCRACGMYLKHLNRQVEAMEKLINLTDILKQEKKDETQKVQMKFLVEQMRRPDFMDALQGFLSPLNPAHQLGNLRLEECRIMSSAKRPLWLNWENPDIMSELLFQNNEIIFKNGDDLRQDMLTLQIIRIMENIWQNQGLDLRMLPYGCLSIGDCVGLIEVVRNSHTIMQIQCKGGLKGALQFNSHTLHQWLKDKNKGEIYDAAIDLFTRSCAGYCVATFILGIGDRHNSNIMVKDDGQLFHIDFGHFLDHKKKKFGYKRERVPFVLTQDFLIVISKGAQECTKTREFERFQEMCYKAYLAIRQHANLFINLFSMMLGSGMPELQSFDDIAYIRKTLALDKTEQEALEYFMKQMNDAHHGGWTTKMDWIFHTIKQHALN

Nc1ccc(N=Nc2ccccc2)c(N)n1 [phenazopyridine, 2,6-diamino-3-(phenylazo)pyridine]
kinase inhibition (PIK3CA(E545A)): 100
kinase inhibition (STK16): 76
remaining binding (% of control) (FGR): 87
kinase inhibition (PIK3CA(E542K)): 98
Concentration [1]: 7 µM
remaining binding (% of control) (RIOK3): 100
kinase inhibition (TTK): 88
remaining binding (% of control) (PLK3): 98
Concentration (Cruzain): 20 µM
kinase inhibition (PIK3C2B): 70
remaining binding (% of control) (FLT3(N841I)): 46
kinase inhibition (NEK4): 100
kinase inhibition (MLK3): 100
remaining binding (% of control) ([2]; TYK2(JH2domain-pseudokinase), 10 µM): 16
remaining binding at 10 µM ([2]; TYK2 as printed (Table S4: JH2domain-pseudokinase), read-out: % Of control): 16%
remaining binding at 10 µM (MKNK2; MKNK2, read-out: % Of control): 6.6%
remaining binding (% of control) (MKNK2; MKNK2, 10 µM): 6.6
remaining binding at 10 µM (MKNK2; MNK2, read-out: Kinome scan (% of control at 10 µM)): 6.6%
kinase inhibition (LATS1): 87
kinase inhibition (PAK2): 97
kinase inhibition (AMPK-alpha1): 99
kinase inhibition (VRK2): 86
kinase inhibition (MAK): 100
kinase inhibition (STK39): 100
kinase inhibition (GSK3A): 100
kinase inhibition (PRKD2): 100
kinase inhibition (BMPR2): 97
kinase inhibition [3]: 100
kinase inhibition (TGFBR1): 100
remaining binding (% of control) (EGFR): 93
kinase inhibition (DCAMKL3): 92
kinase inhibition (MYO3A): 100
kinase inhibition (PIK3CA(M1043I)): 100
kinase inhibition (CDK4-cyclinD3): 100
kinase inhibition (EPHB6): 67
kinase inhibition (SGK3): 100
kinase inhibition (p38-beta): 83
kinase inhibition (EGFR(L858R)): 100
kinase inhibition (CSNK1G1): 85
kinase inhibition (HPK1): 67
